Test results reported in ChEMBL document CHEMBL3886248, “Selective androgen receptor modulators” (2015).

target: T1, Androgen receptor (Rattus norvegicus, UniProt P15207); assay: The assay was performed as specified by the manufacturer (Invitrogen, Madison, Wis.). Briefly, 1 ul of 10 mM compound was added to 500 ul of AR screening buffer in a 1.5 ml eppendorf tube to make a 2x10E-5M stock. 10-fold serial dilutions of the test compounds were prepared ranging in concentration from 10E-5M to 10E-12M. Each dilution was added in triplicate to a black 384-microtiter plate. The test compounds will be diluted 2-fold in the final reaction. 2x AR-Fluormone complex was prepared with 2 nM Flourmone AL Green and 30 nM AR. 25 ul of 2x complex was aliquoted to each reaction well, such that the final reaction volume was 50 ul per well.
T1 sequence (P15207 whole entry): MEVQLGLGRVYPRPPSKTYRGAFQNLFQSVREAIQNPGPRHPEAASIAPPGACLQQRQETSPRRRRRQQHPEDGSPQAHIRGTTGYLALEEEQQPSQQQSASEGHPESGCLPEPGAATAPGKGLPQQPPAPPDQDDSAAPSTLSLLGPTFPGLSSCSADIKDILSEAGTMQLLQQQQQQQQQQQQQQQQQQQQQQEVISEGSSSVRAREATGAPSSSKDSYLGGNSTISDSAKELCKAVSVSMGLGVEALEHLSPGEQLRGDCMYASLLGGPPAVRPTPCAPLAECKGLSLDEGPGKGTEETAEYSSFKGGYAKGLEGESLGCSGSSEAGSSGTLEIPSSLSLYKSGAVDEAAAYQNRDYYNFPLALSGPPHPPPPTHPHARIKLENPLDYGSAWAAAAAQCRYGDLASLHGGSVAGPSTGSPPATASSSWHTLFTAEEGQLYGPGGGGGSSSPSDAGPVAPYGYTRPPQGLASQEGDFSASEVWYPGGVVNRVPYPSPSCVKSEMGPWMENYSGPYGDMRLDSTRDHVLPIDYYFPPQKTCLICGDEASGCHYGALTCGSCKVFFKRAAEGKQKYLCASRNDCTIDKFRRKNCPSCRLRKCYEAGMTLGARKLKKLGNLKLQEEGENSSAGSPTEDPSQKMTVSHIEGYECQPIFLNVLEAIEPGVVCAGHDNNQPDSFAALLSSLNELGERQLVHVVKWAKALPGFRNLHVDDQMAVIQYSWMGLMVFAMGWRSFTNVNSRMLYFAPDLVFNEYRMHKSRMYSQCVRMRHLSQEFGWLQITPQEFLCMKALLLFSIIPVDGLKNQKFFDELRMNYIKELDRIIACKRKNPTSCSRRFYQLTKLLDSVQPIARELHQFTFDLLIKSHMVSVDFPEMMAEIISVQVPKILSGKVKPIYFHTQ

SMILES	IC50 [nM]
Cc1c(N2C(=O)OC[C@@H]2[C@@H](O)C(F)(F)F)ccc(C#N)c1C(F)(F)F	> 1000
C[C@@H]1OC(=O)N(c2ccc(C#N)c(C(F)(F)F)c2)[C@H]1[C@@H](O)C(F)(F)F	72
C[C@@H]1OC(=O)N(c2ccc(C#N)c(C(F)(F)F)c2)[C@H]1[C@H](O)C(F)(F)F	4
